Results reported in a compilation of properties of binary mixtures (doi:10.1016/j.molliq.2022.118955).

Test: xn = mol fraction of the nth substance listed
Conditions: 298.15 K, 100 kPa

Compound `CCCC[n+]1ccn(C)c1.[I-]` + CCO has an electrical conductivity (x1 = 0.0198) of 0.493 S/m, an electrical conductivity (x1 = 0.0392) of 0.821 S/m and an electrical conductivity (x1 = 0.0676) of 1.2 S/m. It also gave an electrical conductivity (x1 = 0.148) of 1.69 S/m, an electrical conductivity (x1 = 0.2876) of 1.53 S/m and an electrical conductivity (x1 = 0.4094) of 1.1 S/m. For the same compound, the electrical conductivity (x1 = 1) was 0.0522 S/m.

With `CC[n+]1ccn(C)c1.[I-]` + CCO the electrical conductivity (x1 = 0.0104) was 0.33 S/m, the electrical conductivity (x1 = 0.0208) was 0.581 S/m and the electrical conductivity (x1 = 0.0477) was 1.15 S/m. The electrical conductivity (x1 = 0.0766) was 1.62 S/m, the electrical conductivity (x1 = 0.1141) was 2.09 S/m and the electrical conductivity (x1 = 0.1621) was 2.51 S/m. The electrical conductivity (x1 = 0.2282) was 2.75 S/m and the electrical conductivity (x1 = 0.3112) was 2.76 S/m.

In the case of `CCO` + CC[n+]1ccn(C)c1.[I-], the electrical conductivity (x2 = 0) is reported as 0.0001 S/m.
